Data as given in the supplement of paper PMC12137928.
Structures can show the parent of a compound that is named as a salt.

Tested on: HCT116
Conditions: 72 h
In short: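 HCT116 cells were seeded at 250 per well in 1536-well plates and left 5 h to attach. CellTiter-Glo luminescence was scaled to vehicle (0%) and positive control (-100%), then pattern-corrected. IC50 and maximal efficacy came from four-parameter Hill fits.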

Compound | IC50 cell viability (ICRF193 0 nM) [µM] | IC50 cell viability (ICRF193 200 nM) [µM]
C=CCCCCCCCCC(=O)[O-].C=CCCCCCCCCC(=O)[O-].[Zn+2] [ZINC UNDECYLENATE] | > 45.8 | > 45.8
COc1cc(C(=O)NS(=O)(=O)c2ccccc2C)ccc1Cc1cn(C)c2ccc(NC(=O)OC3CCCC3)cc12 [Zafirlukast] | > 45.8 | > 45.8
CC(C(=O)O)c1ccc2c(c1)CC(=O)c1ccccc1S2 (stereo not drawn) [Zaltoprofen] | > 45.8 | > 45.8
CC(=O)N[C@H]1[C@H]([C@H](O)[C@H](O)CO)OC(C(=O)O)=C[C@@H]1NC(=N)N [Zanamivir] | > 45.8 | > 45.8
O=C(CCC1CCN(Cc2ccccc2)CC1)c1ccc2c(c1)NCCCC2 [Zanapezil fumerate] | > 45.8 | > 45.8
CC1=C(/C=C/C(C)=C/C=C/C(C)=C/C=C/C=C(C)/C=C/C=C(C)/C=C/C2=C(C)C[C@@H](O)CC2(C)C)C(C)(C)C[C@H](O)C1 [Zeaxanthin] | > 45.8 | > 45.8
Oc1ccc([C@@H]2CNCc3c2ccc(O)c3O)cc1O [Zelandopam] | > 45.8 | > 45.8
CC(c1cc2ccccc2s1)N(O)C(N)=O (stereo not drawn) [Zileuton] | > 45.8 | > 45.8
CC(C)NC1CCn2c(=O)[nH]c3cccc(c32)C1O (stereo not drawn) [Zilpaterol·HCl] | > 45.8 | > 45.8
CCCCN(CCCC)C(=S)[S-].CCCCN(CCCC)C(=S)[S-].[Zn+2] [Zinc dibutyldithiocarbamate] | > 45.8 | > 45.8
O=C1Cc2cc(CCN3CCN(c4nsc5ccccc45)CC3)c(Cl)cc2N1 [Ziprasidone] | > 45.8 | > 45.8
Cc1c(C(N)=O)cc([N+](=O)[O-])cc1[N+](=O)[O-] [Zoalene] | > 45.8 | > 45.8
C[C@H](CSC(=O)c1ccccc1)C(=O)N1C[C@@H](Sc2ccccc2)C[C@H]1C(=O)O [Zofenopril] | > 45.8 | > 45.8
Cc1nn(C)c2c1C(c1ccccc1F)=NCC(=O)N2C [Zolazepam Hydrochloride] | > 45.8 | > 45.8
O=P(O)(O)C(O)(Cn1ccnc1)P(=O)(O)O [Zoledronic acid monohydrate] | > 45.8 | > 45.8
CN(C)CCc1c[nH]c2ccc(C[C@H]3COC(=O)N3)cc12 [Zolmitriptan] | > 45.8 | > 45.8
NS(=O)(=O)Cc1noc2ccccc12 [Zonisamide] | > 45.8 | > 45.8
CN(C)CCOC1=Cc2ccccc2Sc2ccc(Cl)cc21 [Zotepine] | > 45.8 | > 45.8
OCCN1CCN(CCC=C2c3ccccc3Sc3ccc(Cl)cc32)CC1 [Zuclopenthixol (-)-10-Camphorsulfonic Acid Salt] | > 45.8 | > 45.8
CCCCCCCCCC(=O)OCCN1CCN(CC/C=C2/c3ccccc3Sc3ccc(Cl)cc32)CC1 [Zuclopenthixol Decanoate] | > 45.8 | > 45.8
NC(=O)CCCCC1CCSS1 (stereo not drawn) [alpha-Lipoic acid amide] | > 45.8 | > 45.8
O=C(O)CCCCC1CCSS1 (stereo not drawn) [alpha-Lipoic acid] | > 45.8 | > 45.8
CC1=C2[C@H]3OC(=O)[C@@H](C)[C@@H]3CC[C@@]2(C)C=CC1=O [alpha-Santonin] | > 45.8 | > 45.8
CC1=C(/C=C/C(C)=C/C=C/C(C)=C/C=C/C=C(C)/C=C/C=C(C)/C=C/C2=C(C)CCCC2(C)C)C(C)(C)CCC1 [beta-Carotene] | > 45.8 | > 45.8
O=P(O)(O)OC(CO)CO [beta-Glycerol phosphate disodium salt pentahydrate] | > 45.8 | > 45.8
C=C(C)[C@H]1CC=C(C)CC1 [d-LIMONENE] | > 45.8 | > 45.8
N[C@H](Cc1c[nH]c2ccccc12)C(=O)O [d-Tryptophan] | > 45.8 | > 45.8
OC[C@@H]1NC[C@@H](O)[C@H](O)[C@H]1O [deoxynorjrimycin(1)] | > 45.8 | > 45.8
COc1cc(/C=C/C(=O)O[C@H]2CC[C@]34C[C@]35CC[C@]3(C)[C@@H]([C@H](C)CCC=C(C)C)CC[C@@]3(C)[C@@H]5CC[C@H]4C2(C)C)ccc1O [gamma-Oryzanol] | > 45.8 | > 45.8
